Results taken from US12403115B2, “Asymmetric synthesis and uses of compounds in disease treatments” (Zhejiang Jiachi Development Pharmaceuticals LTD., priority 2017, dated 2025).
“Also recorded” adds a separate entry of the source.

Tests used:
OVX female mice [1] = test: OVX mice: vulvovagina atrophy (vagina wet mass, H&E sections, thickness of vulvovagina wall); assay type: in vivo; details: given by food, three months
Protocol: (§1) In this Example, studies have been shown the estrogenic effects of α- and β-anordrins on estrogen-modulated metabolic signaling and tissue atrophy. The ovaries of 7 week old mice were surgically excised. One week post surgery, the mice were given isoflavone, α-anordrin or β-anordrin by food. Body mass, blood glucose and food intake were measured monthly. After three months. Mice were sacrificed. The leg and spine bone, liver, uterus and vagina were harvested.
(§2) The ovaries of 6 week old mice were excised by surgery. 3 days post surgery drugs were administered by gastric tract injection every day or mixed with food.
(§3) Vagina was cut at the middle site. Both uterine site and vulvovaginal site were embedded in paraffin at the same direction for H&E section preparation. The thickness of vulvovaginal wall was measured from 40× magnification images of Paraffin-embedded H&E mice vagina sections.

OVX female mice [2] = test: OVX mice: TG accumulation in liver (H&E sections, liver TG); assay type: in vivo; details: given by food
Protocol: as §1, §2
The error was corrected by using internal standard controls.

OVX female mice [3] = test: OVX mice: blood glucose, blood TG, body mass and food uptake; assay type: in vivo
Protocol: as §1
glucose concentration in medium or total blood from mouse tail was measured using glucose assay kits following manufacturer's instructions (Yicheng, Beijing).
as §2

OVX female mice [4] = test: OVX mice: uterus atrophy (uterine wet mass, H&E sections); assay type: in vivo; details: three months
Protocol: as §1, §2

OVX female mice [5] = test: OVX mice: osteoporosis by micro-CT (BMD, BV/TV); assay type: in vivo; details: for prevention of osteoporosis (micro-CT): OVX mice, given by food, three months
Protocol: as §1, §2
(§4) Thighbone was fixed in 1×DPBS containing 3% formaldehyde for two weeks. The fixation solution was exchanged after one week. The density of thighbone was measured by Siemens Inveon Micro-CT. Inveon Research Workplace (IRW) was used to analyze the HU2000 value at the following measurement conditions: 80 KVP, […], 1500 ms exposure time; CCD Readout installation: 2048axial, 2048 binning; FOV Transaxial: 19.03 mm, axial: 19.03 mm, pixels size: 9.29 μm.

mouse vagina = test: Anastrozole-induced vagina atrophy in mice (vagina wet mass, H&E sections); assay type: in vivo; details: food containing drug plus equal amount of anastrozole, 6 months
Description: (§5) Aromatase inhibitors were administrated to ER positive breast in post-menopausal women. […] It was administrated to ER positive breast cancer in post menopausal women. […] Vulvovagina atrophy usually results in infection of vagina and urinary tract. As an example, we tested whether α-anordrin or β-anordrin eliminates anastrozole-induced uterus and vulvovagina atrophy, and osteoporosis. […] Mice were then sacrificed to harvest vagina, leg and spine bone. The tissues were fixed in paraformaldehyde.
as §3

mice bone = test: Anastrozole-induced osteoporosis in mice by micro-CT (BMD, BV/TV, Tb.N); assay type: in vivo; details: for inhibition of anastrozole-induced osteoporosis (micro-CT): food containing drug plus equal amount of anastrozole, 6 months
Description: as §5, §4

mouse liver = test system: mouse liver
Protocol: (§6) Tamoxifen was the first FDA-approved drug for breast cancer patients with positively expressed ER. […] We further tested whether α-anordrin or β-anordrin eliminates tamoxifen-induced EEC mitosis. […] Mice were then sacrificed to harvest uterus and liver. Uterine and liver tissues were fixed.
(§7) The tissue of mice was excised by surgery and fixed using 4% paraformaldehyde in 1×DPBS (Beijing Solar Bioscience & Technology co., Ltd). Paraffin section preparation and HE staining was performed by GLP laboratory of BK animal model, Inc.
30-50 mg of mouse liver was excised by surgery and homogenized in 1 ml Cholroform:Methanol (2:1) mixture and extracted using 0.5 ml ddH2O. The organic phase was transferred to new tubes and air dried. The amount of TG was measured using kits following manufacturer's instructions. The error was corrected by using internal standard controls.

mice uterus EECs = test system: mice uterus EECs
Protocol: as §6, §7
EEC height was measured from 20-200× magnification EEC images of Paraffin-embedded H&E mice uterus sections.

[6] = test system: endometrial epithelial cell (EEC); details: earlier finding of the applicants, no method given here (cf. reference 21); cited from earlier work
[7] = combination with equal amount of anastrozole, micro-CT
[8] = mice, food containing drug plus tamoxifen, 6 months

With `C#C[C@@]1(OC(=O)CC)CC2CCC3C(CC[C@@]4(C)C3CC[C@]4(C#C)OC(=O)CC)[C@@]2(C)C1` (single isomer, unassigned) [α-anordrin, (2α,17α)-diethynyl-(2β, 17β)-diol-dipropionate-A-nor-5α-androstane] the “prevention of vulvovagina atrophy (uterus and vagina wet mass and H&E staining)” value (OVX female mice [1]) was “prevented vulvovagina atrophy; also recorded: dosage dependent activity to prevent the atrophy of vulvovagina”, the “amount of liver TG (liver H&E section and statistical analysis)” value (OVX female mice [2]) was “decreased the amount of liver TG; also recorded: dosage dependent activity to prevent TG accumulation in liver” and the body mass (OVX female mice [3]; after administration of drugs by food) was “less and dosage dependent activity to decrease”. For the same molecule, the blood glucose (OVX female mice [3]; given by food) was “less and dosage dependent activity to decrease”, the “blood triglyceride (TG)” value (OVX female mice [3]; given by food) was “less and dosage dependent activity to decrease” and the “prevention of uterus atrophy” value (OVX female mice [4]; OVX female mice, lower dosage, compared with sham group) was “did not prevent the uterus atrophy”. For the same molecule, the “atrophy symptom in uterus” value (OVX female mice [4]; OVX mice, given by food) was “less atrophy symptom in uterus compared with those mice treated by β-anordrin and blank groups”, the “prevention of the decrease of bone volume (BV)/bone trabecula volume (TV) ratio (BV/TV)” value (OVX female mice [5]; OVX female mice, micro-CT) was “more activity to prevent the ratio decreasing of bone volume (BV)/bone trabecula volume (TV) (BV/TV) compared with β-anordrin” and the “prevention of the loss of bone mean density (BMD)” value (OVX female mice [5]; OVX female mice, micro-CT) was “more activity to prevent the loss of bone mean density (BMD) compared with β-anordrin”. The “prevention of osteoporosis (micro-CT)” value (OVX female mice [5]) was “prevented osteoporosis; also recorded: more actively to prevent the osteoporosis compared with β-anordrin”, the “inhibition of anastrozole-induced vagina atrophy (vagina wet mass, H&E sections)” value (mouse vagina) was “inhibits anastrozole-induced vagina atrophy” and the “inhibition of anastrozole-induced decrease of BV/TV” value (mice bone; [7]) was “inhibits anastrozole-induced the ratio decreasing of bone volume (BV)/bone trabecular volume (TV) (BV/TV)”. For the same molecule, the “inhibition of anastrozole-induced decrease of bone trabecula number (Tb.N)” value (mice bone; [7]) was “inhibits anastrozole-induced the decreasing of bone trabecula number (Tb.N)”, the “inhibition of anastrozole-induced loss of bone mean density (BMD)” value (mice bone; [7]) was “inhibits anastrozole-induced the loss of bone mean density (BMD)” and the “inhibition of anastrozole-induced osteoporosis (micro-CT)” value (mice bone) was “inhibited anastrozole-induced osteoporosis; also recorded: inhibits anastrozole-induced osteoporosis in bone”.

In the case of `C#C[C@]1(OC(=O)CC)C[C@@H]2CC[C@@H]3[C@H](CC[C@@]4(C)[C@H]3CC[C@]4(C#C)OC(=O)CC)[C@@]2(C)C1` [β-anordrin, (2β,17α)-diethynyl-(2α,17β)-diol-dipropionate-A-nor-5α-androstane, reference compound], the “prevention of vulvovagina atrophy (uterus and vagina wet mass and H&E staining)” value (OVX female mice [1]) is reported as “not β-anordrin prevented vulvovagina atrophy”, the “inhibition of tamoxifen-induced NASH” value (mouse liver; [8]) is reported as “not β-anordrin inhibited” and the “amount of liver TG (liver H&E section and statistical analysis)” value (OVX female mice [2]) is reported as “not β-anordrin decreased the amount of liver TG”. For the same molecule, the “inhibition of tamoxifen-induced EEC mitosis” value (mice uterus EECs; [8]) was “not β-anordrin inhibited tamoxifen-induced EEC mitosis”, the “prevention of osteoporosis (micro-CT)” value (OVX female mice [5]) was “not 3-anordrin prevented osteoporosis” and the “inhibition of anastrozole-induced vagina atrophy (vagina wet mass, H&E sections)” value (mouse vagina) was “not β-anordrin inhibited anastrozole-induced vagina atrophy”. For the same molecule, the “inhibition of anastrozole-induced osteoporosis (micro-CT)” value (mice bone) was “not β-anordrin inhibited anastrozole-induced osteoporosis”.

For `C#C[C@@]1(OC(=O)CC)C[C@@H]2CC[C@@H]3[C@H](CC[C@@]4(C)[C@H]3CC[C@]4(C#C)OC(=O)CC)[C@@]2(C)C1` [anordrin], the “elimination of tamoxifen-induced endometrial epithelial cell (EEC) mitosis” value [6] is given as “can eliminate tamoxifen-induced endometrial epithelial cell (EEC) mitosis”.

In the case of `CC/C(=C(\c1ccccc1)c1ccc(OCCN(C)C)cc1)c1ccccc1` [TAM, tamoxifen, reference compound], the “fatty deposition in liver cells (H&E staining sections)” value (mouse liver; mouse, in vivo) is reported as “high fatty deposition in liver cells” and the “appearance of EECs in H&E staining sections” value (mice uterus EECs; mouse, in vivo) is reported as “rough and mitotic”.
